# Values joined by “and” are separate entries in the source; they are usually repeats but may differ in a detail not shown here. Equal values may be shown once.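 Test compounds were applied to cells in 96-well plates for 48 hours at 5 doses. GI50 = concentration required for 50% inhibition of growth. Definition used: TGI = concentration required for complete inhibition of growth.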
# Key:
# Assay in all cases: NCI-60 cell line screen, 48 h
# M14 melanoma = tested on: M14 melanoma
# SK-OV-3 ovarian = tested on: SK-OV-3 ovarian
# HL-60(TB) leukemia = tested on: HL-60(TB) leukemia
# ACHN renal = tested on: ACHN renal
# RPMI-8226 leukemia = tested on: RPMI-8226 leukemia
# U251 CNS = tested on: U251 CNS
# SNB-75 CNS = tested on: SNB-75 CNS
# NCI-H460 lung = tested on: NCI-H460 lung
# A498 renal = tested on: A498 renal
# NCI/ADR-RES ovarian = tested on: NCI/ADR-RES ovarian
# CAKI-1 renal = tested on: CAKI-1 renal
# NCI-H23 lung = tested on: NCI-H23 lung
# UO-31 renal = tested on: UO-31 renal
# LOX IMVI melanoma = tested on: LOX IMVI melanoma
# MDA-N = tested on: MDA-N
# SF-295 CNS = tested on: SF-295 CNS
# MDA-MB-231 breast = tested on: MDA-MB-231 breast
# IGROV1 ovarian = tested on: IGROV1 ovarian
Structure (SMILES),TGI (M14 melanoma),TGI (SK-OV-3 ovarian),TGI (HL-60(TB) leukemia) [µM],TGI (ACHN renal),TGI (RPMI-8226 leukemia) [µM],TGI (U251 CNS),TGI (SNB-75 CNS),TGI (NCI-H460 lung) [µM],TGI (A498 renal) [µM],TGI (NCI/ADR-RES ovarian),TGI (CAKI-1 renal),TGI (NCI-H23 lung),TGI (UO-31 renal),TGI (LOX IMVI melanoma),TGI (MDA-N),TGI (SF-295 CNS),TGI (MDA-MB-231 breast),TGI (IGROV1 ovarian),GI50 (SF-295 CNS)
Fc1ccc(C(OCCN2CCC3CCC(C2)N3Cc2cc3ccccc3[nH]2)c2ccc(F)cc2)cc1 (centres undefined),2.94 µM,5.69 µM,3.69,4.07 µM,3.42,3.42 µM,3.97 µM,3.67,2.99,3.1 µM,5.69 µM,3.05 µM,3.42 µM,3.18 µM,3.1 µM,3.78 µM,3.22 µM,2.79 µM,–
CC(C)[Si](OC1=CCCCCC12C(=O)N(C)c1ccccc12)(C(C)C)C(C)C (centres undefined),49.2 µM,46.6 µM,38.9,35.9 µM,36.5,36.3 µM,40.4 µM,38.4,42.8,42.8 µM,40.7 µM,46.1 µM,36.7 µM,35.7 µM,79.7 µM,28.6 µM,54.8 µM,62.9 µM,–
CSC(=NCCN=C(NS(=O)(=O)c1ccc(Cl)cc1)SC)NS(=O)(=O)c1ccc(Cl)cc1,> 100 µM,59.1 µM,> 100,> 100 µM,> 100,42.6 µM,51.3 µM,> 100,> 100,> 100 µM,> 100 µM,> 100 µM,> 100 µM,> 100 µM,> 100 µM,> 100 µM,> 100 µM,> 100 µM,–
Cc1[nH]c2ccccc2c1C=Nc1ccc(Oc2ccccc2)cc1,30.3 µM,32 µM,32.3,30.8 µM,35.4,29.3 µM,26.1 µM,40,37,38.8 µM,30.4 µM,32.1 µM,24.4 µM,32.8 µM,31.9 µM,29.1 µM,32.2 µM,28.3 µM,–
O=C1OC(CN2CCN(c3ccccc3)CC2)CN1C(=S)Nc1ccccc1 (centres undefined),> 100 µM,> 100 µM,> 100,> 100 µM,> 100,> 100 µM,> 100 µM,> 100,> 100,> 100 µM,> 100 µM,> 100 µM,> 100 µM,> 100 µM,> 100 µM,> 100 µM,> 100 µM,> 100 µM,–
CCC1(C)N=C(C(N)=O)c2ncn(N=C(C)C)c2N1 (centres undefined),> 100 µM,> 100 µM,> 100,> 100 µM,> 100,> 100 µM,> 100 µM,> 100,> 100,> 100 µM,> 100 µM,> 100 µM,–,> 100 µM,> 100 µM,> 100 µM,> 100 µM,> 100 µM,–
O=C(/C=C/c1ccc(Cl)c(Cl)c1)Oc1ccc(/C=C2\CCCCC2=O)cc1,> 100 µM,–,> 100,> 100 µM,> 100,> 100 µM,> 100 µM,> 100,> 100,> 100 µM,> 100 µM,> 100 µM,> 100 µM,> 100 µM,> 100 µM,> 100 µM,> 100 µM,> 100 µM,–
O=[N+]([O-])C1(C2([N+](=O)[O-])CCCC2)CCCC1,> 100 µM,> 100 µM,> 100,–,> 100,> 100 µM,> 100 µM,> 100,> 100,> 100 µM,> 100 µM,> 100 µM,> 100 µM,> 100 µM,> 100 µM,–,> 100 µM,> 100 µM,–
CCCc1c2c3ccccc3nc-2nc2ccccn12,> 100 µM,> 100 µM,> 100,> 100 µM,> 100,> 100 µM,> 100 µM,> 100,> 100,> 100 µM,> 100 µM,88.6 µM,> 100 µM,> 100 µM,> 100 µM,> 100 µM,> 100 µM,> 100 µM,–
Cn1c(=O)n(CC(Br)CBr)c(=O)n(CC(Br)CBr)c1=O (centres undefined),73.6 µM,> 100 µM,58,> 100 µM,63.8,> 100 µM,> 100 µM,> 100,> 100,> 100 µM,> 100 µM,> 100 µM,97.6 µM,34.9 µM,> 100 µM,> 100 µM,> 100 µM,> 100 µM,–
NC(CCCCNc1ccn(C2OC(CO)C(O)C2O)c(=O)n1)C(=O)O (centres undefined),> 100 µM,–,> 100,> 100 µM,> 100,> 100 µM,> 100 µM,> 100,> 100,> 100 µM,> 100 µM,–,> 100 µM,> 100 µM,> 100 µM,> 100 µM,> 100 µM,> 100 µM,–
CC(Cc1ccc(O)c(O)c1)C(C)Cc1ccc(O)c(O)c1 (centres undefined),34 µM,84 µM,10.3,33.5 µM,> 63.8,38.9 µM,61.7 µM,35,90.1,64.7 µM,25.4 µM,46.6 µM,23.1 µM,38.8 µM,26.3 µM,43 µM,> 57 µM,33.6 µM,–
Cc1ccc(C2=Nc3c(N)nc(N)nc3NC(c3ccccc3)C2)cc1 (centres undefined),20.8 µM and 21.8 µM,27.1 µM and 27.6 µM,20.3,28.8 µM and 32 µM,> 100,24.6 µM and 26.4 µM,29.8 µM and 27.4 µM,28.3,23.6,16.1 µM and 18.2 µM,24.7 µM and 29.5 µM,24.1 µM and 25.6 µM,25.2 µM and 25.6 µM,23 µM and 28 µM,5.64 µM and 5.72 µM,17.9 µM and 23.8 µM,19.7 µM and 28.9 µM,21.2 µM and 21.6 µM,4.9 µM and 10.5 µM
